Where two headings read alike, the source gives them in different places.
Legend:
[1] = tested on: Mammary alveolar hyperplasia; experiment: Uptake in benign tissues: Mammary alveolar hyperplasia; format: in vivo; settings: Endogenous Mouse
Intestinal Polyp = experiment: Uptake in benign tissues: Intestinal Polyp; format: in vivo; settings: Endogenous Mouse, Adenoma (benign)
A375 and A549 cells = experiment: Levels of FLV3 in cell lysate and growth media (LC/MS); format: cell-based, human
Protocol: FIG. 11 is a graph of concentration versus time for FLV3 detected in the cytosol (normalized to the cytosolic volume) in A375 (human melanoma) and A549 (human lung adenocarcinoma) cell lines.
The levels of FLV3 in cell lysate and growth media were measured using LC/MS. […] Levels of intracellular FLV3 appeared to plateau at 24 hours, while extracellular levels of FLV3 continued to increase.

[2] = tested on: A549 (human lung adenocarcinoma); experiment: cells; format: cell-based; settings: Homo sapiens, A549, read-out: IC50, A549
[3] = tested on: NHDF (normal human dermal fibroblasts); experiment: cells; format: cell-based
[4] = tested on: HCT 116 (human colon cancer); experiment: IC50 in cell lines: HCT 116; format: cell-based; settings: HCT-116, read-out: IC50, HCT 116
[5] = tested on: A375 (human malignant melanoma); experiment: IC50 in cell lines: A375; format: cell-based; settings: A-375, read-out: IC50, A375
[6] = tested on: A549 (human lung adenocarcinoma) cells; experiment: Cytotoxicity of parent compound versus PDC, tumor cells (Example 8); format: cell-based; settings: increasing concentrations; FIG. 3
Protocol: A549 (human lung adenocarcinoma) cells and normal human dermal fibroblasts (NHDF) were plated in 96 well dishes overnight. […] The difference between the cytotoxicity of the PDC molecule for tumor cells and that of the normal cells may have indicated a potential to improve the parent molecules therapeutic index.

[7] = format: in vivo, mice
Protocol: Listed in Table 5 are the doses administered to the mice, and how many mice were alive after treatment (“3/3” indicates 3 out of 3 mice were alive). […] MTD for CLR 1865 was between 5 and 10 mg/kg.

Structure (SMILES) | Tumor Uptake [1] | Tumor Uptake (Intestinal Polyp) | Time at which levels of intracellular FLV3 plateau (A375 and A549 cells) [h] | Levels of FLV3 in the growth media (A375 and A549 cells; after 24 hours) | Levels of FLV3 in the cell lysate (A375 and A549 cells; after 24 hours, FIG. 11) | IC50 [2] [nM] | IC50 ([3]; Homo sapiens, NHDF, read-out: IC50, NHDF) [nM] | Therapeutic Index (TI) ([3]; not defined, equals NHDF IC50 over lowest tumor line IC50) | IC50 [4] [nM] | IC50 [5] [nM] | Cytotoxic potency to A549 cells versus NHDF cells (selectivity) [6] | Mice alive after treatment ([7]; Dose 0.1 mg/kg) | Mice alive after treatment ([7]; Dose 0.25 mg/kg)
C[N+](C)(C)CCOP(=O)([O-])OCCCCCCCCCCCCCCCCCCc1ccc(I)cc1 [CLR1404] | No | No |  |  |  |  |  |  |  |  |  |  | 
COC(=O)[C@@H]1[C@H](O)[C@]2(O)c3c(OC)cc(OCCCCN)cc3O[C@]2(c2ccc(OC)cc2)[C@H]1c1ccccc1 [FLV3, reference compound] |  |  | 24 | Moderate levels | high levels | 90 | 8 | 0.89 | 9 | 15 | near equal potency to the A549 cells as it did to the NHDF cells | 3/3 | 3/3

Reference: US12503479B2, “Phospholipid-flavagline conjugates and methods of using the same for targeted cancer therapy” (Cellectar Biosciences, Inc., priority 2018, dated 2025)
